The text below walks through data of patent US20260248748A1, “LIPOOLIGOUREAS, PHARMACEUTICAL COMPOSITION, AND LIPOOLIGOUREAS FOR USE AS MEDICAMENT” (priority 2022, published 2026).

Structures are written as SMILES. In brackets after ≈: the same amount, converted by molar mass.

One experiment concerns Klebsiella pneumoniae PCM 1.
Assay: not given
To be noted: LB medium, 24 h, 30° C. The experiment is classed as cell-based. The method, then: (§1) All strains were cultured in LB medium (lysogenic broth).
(§2) The test compounds were dissolved in water. […] Data were obtained from three independent experiments.
As a reminder, the MIC is the least concentration at which growth counts as inhibited. A low value points to inhibition by little substance. On to `CCCCCCCCCC(=O)N[C@H](CNC(=O)N[C@@H](CCCCN)CNC(=O)N[C@@H](CCCCN)CNC(=O)N[C@H](CNC(=O)N[C@@H](CCCCN)CNC(N)=O)CC(C)C)Cc1ccccc1` [LOU1], for which the minimum inhibitory concentration (MIC) result is listed as “n.d. (n.d. = not determined, i.e., the MIC value was higher than 50 μg/mL)”.

In turn, `CCCCCCCCCC(=O)N[C@H](CNC(=O)N[C@@H](CCN)CNC(=O)N[C@@H](CCN)CNC(=O)N[C@H](CNC(=O)N[C@H](CNC(N)=O)CC(C)C)CC(C)C)Cc1ccccc1` [LOU2] came in with an MIC of 30 µg/mL (≈ 33.7 µM).

In another experiment the test system is Salmonella sv. typhimurium TT622.
Assay: not given
Format: cell-based. To be noted: 24 h. Here is the method: as §1, §2
For `CCCCCCCCCC(=O)N[C@H](CNC(=O)N[C@@H](CCN)CNC(=O)N[C@@H](CCN)CNC(=O)N[C@H](CNC(=O)N[C@H](CNC(N)=O)CC(C)C)CC(C)C)Cc1ccccc1` [LOU2], the minimum inhibitory concentration (MIC) was 30 µg/mL (≈ 33.7 µM).

Still in this experiment, the particulars now being: (−) Salmonella sv. typhimurium TT622; LB medium, 24 h, 30° C.
Consider `CCCCCCCCCC(=O)N[C@H](CNC(=O)N[C@@H](CCCCN)CNC(=O)N[C@@H](CCCCN)CNC(=O)N[C@H](CNC(=O)N[C@@H](CCCCN)CNC(N)=O)CC(C)C)Cc1ccccc1` [LOU1], for which the minimum inhibitory concentration (MIC) entry is on record as “n.d. (n.d. = not determined, i.e., the MIC value was higher than 50 μg/mL)”.

For another experiment, the system named is Yersinia enterocolitica PCM 2081.
Assay: not given
The experiment is classed as cell-based. To be noted: LB medium, 24 h, 30° C. Here is the method: as §1, §2
Consider `CCCCCCCCCC(=O)N[C@H](CNC(=O)N[C@@H](CCCCN)CNC(=O)N[C@@H](CCCCN)CNC(=O)N[C@H](CNC(=O)N[C@@H](CCCCN)CNC(N)=O)CC(C)C)Cc1ccccc1` [LOU1], for which the MIC entry is “n.d. (n.d. = not determined, i.e., the MIC value was higher than 50 μg/mL)”.

Consider `CCCCCCCCCC(=O)N[C@H](CNC(=O)N[C@@H](CCN)CNC(=O)N[C@@H](CCN)CNC(=O)N[C@H](CNC(=O)N[C@H](CNC(N)=O)CC(C)C)CC(C)C)Cc1ccccc1` [LOU2], for which the MIC was determined as 30 µg/mL (≈ 33.7 µM).

A further experiment deals with Pseudomonas aeruginosa PAO1 PCM 499.
Assay: not given
Format: cell-based. To be noted: LB medium, 24 h, 30° C. The method, then: as §1, §2
`CCCCCCCCCC(=O)N[C@H](CNC(=O)N[C@@H](CCCCN)CNC(=O)N[C@@H](CCCCN)CNC(=O)N[C@H](CNC(=O)N[C@@H](CCCCN)CNC(N)=O)CC(C)C)Cc1ccccc1` [LOU1]: the minimum inhibitory concentration (MIC) result is on record as “n.d. (n.d. = not determined, i.e., the MIC value was higher than 50 μg/mL)”.

On to `CCCCCCCCCC(=O)N[C@H](CNC(=O)N[C@@H](CCN)CNC(=O)N[C@@H](CCN)CNC(=O)N[C@H](CNC(=O)N[C@H](CNC(N)=O)CC(C)C)CC(C)C)Cc1ccccc1` [LOU2], for which the minimal inhibitory concentration (MIC) turned out to be 30 µg/mL (≈ 33.7 µM).

The next experiment has as its system Enterococcus faecalis ATCC 14506.
Assay: not given
The experiment is classed as cell-based. To be noted: LB medium, 24 h, 30° C. Here is the method:
as §1, §2
Consider `CCCCCCCCCC(=O)N[C@H](CNC(=O)N[C@@H](CCCCN)CNC(=O)N[C@@H](CCCCN)CNC(=O)N[C@H](CNC(=O)N[C@@H](CCCCN)CNC(N)=O)CC(C)C)Cc1ccccc1` [LOU1], for which the MIC result is reported as “n.d. (n.d. = not determined, i.e., the MIC value was higher than 50 μg/mL)”.

In the case of `CCCCCCCCCC(=O)N[C@H](CNC(=O)N[C@@H](CCN)CNC(=O)N[C@@H](CCN)CNC(=O)N[C@H](CNC(=O)N[C@H](CNC(N)=O)CC(C)C)CC(C)C)Cc1ccccc1` [LOU2], the minimum inhibitory concentration (MIC) came to 20 µg/mL (≈ 22.5 µM).

In another experiment the test system is Staphylococcus aureus ATCC 29213.
Assay: not given
The experiment is classed as cell-based. To be noted: LB medium, 24 h, 30° C. The method, then:
as §1, §2
With `CCCCCCCCCC(=O)N[C@H](CNC(=O)N[C@@H](CCCCN)CNC(=O)N[C@@H](CCCCN)CNC(=O)N[C@H](CNC(=O)N[C@@H](CCCCN)CNC(N)=O)CC(C)C)Cc1ccccc1` [LOU1], the minimal inhibitory concentration (MIC) is 30 µg/mL (≈ 31.2 µM).

Molecule `CCCCCCCCCC(=O)N[C@H](CNC(=O)N[C@@H](CCN)CNC(=O)N[C@@H](CCN)CNC(=O)N[C@H](CNC(=O)N[C@H](CNC(N)=O)CC(C)C)CC(C)C)Cc1ccccc1` [LOU2] registered an MIC of 10 µg/mL (≈ 11.2 µM).

For a further experiment, the system named is Escherichia coli ST2-8624 O157:H7.
Assay: not given
The experiment is classed as cell-based. To be noted: LB medium, 24 h, 30° C. Here is the method: as §1, §2
For `CCCCCCCCCC(=O)N[C@H](CNC(=O)N[C@@H](CCCCN)CNC(=O)N[C@@H](CCCCN)CNC(=O)N[C@H](CNC(=O)N[C@@H](CCCCN)CNC(N)=O)CC(C)C)Cc1ccccc1` [LOU1], the MIC result is on record as “n.d. (n.d. = not determined, i.e., the MIC value was higher than 50 μg/mL)”.

`CCCCCCCCCC(=O)N[C@H](CNC(=O)N[C@@H](CCN)CNC(=O)N[C@@H](CCN)CNC(=O)N[C@H](CNC(=O)N[C@H](CNC(N)=O)CC(C)C)CC(C)C)Cc1ccccc1` [LOU2]: the MIC amounted to 30 µg/mL (≈ 33.7 µM).

The next experiment relates to Staphylococcus epidermidis ATCC 12228.
Assay: not given
Format: cell-based. To be noted: LB medium, 24 h, 30° C. Here is the method:
as §1, §2
For the molecule `CCCCCCCCCC(=O)N[C@H](CNC(=O)N[C@@H](CCCCN)CNC(=O)N[C@@H](CCCCN)CNC(=O)N[C@H](CNC(=O)N[C@@H](CCCCN)CNC(N)=O)CC(C)C)Cc1ccccc1` [LOU1], the MIC came out at 30 µg/mL (≈ 31.2 µM).

For `CCCCCCCCCC(=O)N[C@H](CNC(=O)N[C@@H](CCN)CNC(=O)N[C@@H](CCN)CNC(=O)N[C@H](CNC(=O)N[C@H](CNC(N)=O)CC(C)C)CC(C)C)Cc1ccccc1` [LOU2], the minimal inhibitory concentration (MIC) was determined as 10 µg/mL (≈ 11.2 µM).

The subject of the next experiment is strains of methicillin-resistant Staphylococcus aureus (MRSA). In words: Activity against MRSA strains (summary of the MIC results). To be noted: in words, from the MIC values of Table 1. Format: cell-based. The method, then:
as §1, §2
The results of the measurements summarized in Table 1 indicate that all of the lipooligoureas tested show varying activity against the bacterial strains tested. Lipooligoureas according to the invention show activity against both gram-positive and gram-negative bacterial strains. The results obtained indicate a certain degree of selectivity of the lipooligoureas according to the invention against gram-positive strains of Staphylococcus aureus ATCC 29213 and Staphylococcus epidermidis ATCC 12228, for which by far the highest activity of the tested lipooligoureas was observed, i.e. the lowest values of MIC. This trend is also reflected in the activity against strains of methicillin-resistant Staphylococcus aureus (MRSA).
On to `CCCCCCCCCC(=O)N[C@H](CNC(=O)N[C@@H](CCN)CNC(=O)N[C@@H](CCN)CNC(=O)N[C@H](CNC(=O)N[C@H](CNC(N)=O)CC(C)C)CC(C)C)Cc1ccccc1` [LOU2], for which the “activity against strains of methicillin-resistant Staphylococcus aureus (MRSA)” value was “particularly high activity”.

The test system of a further experiment is Methicillin-resistant Staphylococcus aureus (MRSA) 5288/13.
Assay: not given
To be noted: MRSA strain (+) 5288/13; LB medium, 24 h, 30° C. An excerpt:
(§3) All bacterial strains were obtained from the Polish Collection of Microorganisms (PCM) or American Type Culture Collection (ATCC). Gram-positive bacterial strains: Staphylococcus aureus ATCC 29213, Staphylococcus epidermidis ATCC 12228, Enterococcus faecalis ATCC 14506. Methicillin-resistant Staphylococcus aureus (MRSA) bacterial strains: Staphylococcus aureus 401/5, Staphylococcus aureus 4811/13, Staphylococcus aureus 5288/13. Gram-negative bacterial strains: Escherichia coli ST2-8624 O157:H7, Pseudomonas aeruginosa PAO1 PCM 499, Klebsiella pneumoniae PCM 1, Salmonella sv. typhimurium TT622, and Yersinia enterocolitica PCM 2081. All strains were cultured in LB medium (lysogenic broth).
(§4) 10 mL of LB medium was inoculated with the material from a single bacterial colony and cultured at 30° C. with shaking overnight. The optical density of overnight cultures (at 600 nm) was then brought to 0.05 by dilution with a fresh portion of LB medium. The test compounds were dissolved in water. Serial dilutions of the compounds were performed in LB medium ranging from 5 to 50 μg/mL (final concentrations). The experiment was carried out by adding 100 μL of each prepared dilution to 100 μL of diluted overnight bacterial culture in the wells of a 96-well titer plate. […] Optical density measurements were conducted using a TECAN Sunrise plate reader. Data were obtained from three independent experiments.
Regarding `CCCCCCCCCC(=O)N[C@H](CNC(=O)N[C@@H](CCCCN)CNC(=O)N[C@@H](CCCCN)CNC(=O)N[C@H](CNC(=O)N[C@@H](CCCCN)CNC(N)=O)CC(C)C)Cc1ccccc1` [LOU1], the minimum inhibitory concentration (MIC) came out at 40 µg/mL (≈ 41.6 µM).

Consider `CCCCCCCCCC(=O)N[C@H](CNC(=O)N[C@@H](CCN)CNC(=O)N[C@@H](CCN)CNC(=O)N[C@H](CNC(=O)N[C@H](CNC(N)=O)CC(C)C)CC(C)C)Cc1ccccc1` [LOU2], for which the MIC came to 10 µg/mL (≈ 11.2 µM).

The test system of a further experiment is Methicillin-resistant Staphylococcus aureus (MRSA) 4811/13.
Assay: not given
To be noted: MRSA strain (+) 4811/13; LB medium, 24 h, 30° C.
Excerpt: as §3, §4
`CCCCCCCCCC(=O)N[C@H](CNC(=O)N[C@@H](CCCCN)CNC(=O)N[C@@H](CCCCN)CNC(=O)N[C@H](CNC(=O)N[C@@H](CCCCN)CNC(N)=O)CC(C)C)Cc1ccccc1` [LOU1]: the minimal inhibitory concentration (MIC) stood at 30 µg/mL (≈ 31.2 µM).

The molecule `CCCCCCCCCC(=O)N[C@H](CNC(=O)N[C@@H](CCN)CNC(=O)N[C@@H](CCN)CNC(=O)N[C@H](CNC(=O)N[C@H](CNC(N)=O)CC(C)C)CC(C)C)Cc1ccccc1` [LOU2] displayed an MIC of 10 µg/mL (≈ 11.2 µM).

Another experiment deals with Methicillin-resistant Staphylococcus aureus (MRSA) 401/5.
Assay: not given
To be noted: MRSA strain (+) 401/5; LB medium, 24 h, 30° C.
Excerpt: as §3, §4
Take `CCCCCCCCCC(=O)N[C@H](CNC(=O)N[C@@H](CCCCN)CNC(=O)N[C@@H](CCCCN)CNC(=O)N[C@H](CNC(=O)N[C@@H](CCCCN)CNC(N)=O)CC(C)C)Cc1ccccc1` [LOU1]: the MIC was found to be 30 µg/mL (≈ 31.2 µM).

`CCCCCCCCCC(=O)N[C@H](CNC(=O)N[C@@H](CCN)CNC(=O)N[C@@H](CCN)CNC(=O)N[C@H](CNC(=O)N[C@H](CNC(N)=O)CC(C)C)CC(C)C)Cc1ccccc1` [LOU2] yielded an MIC of 10 µg/mL (≈ 11.2 µM).
